SMILES strings stand for the structures.

The target of one assay is WDR5 (Homo sapiens (Human), UniProt P61964). Description: TR-FRET binding assay (displacement of 10mer-Thr-FAM probe from WDR5). The settings on record: read-out: Ki for Inhibition of WDR5 by TR-FRET assay. (In general: TR-FRET usually uses a lanthanide donor and a delayed reading to cut background.)
One may read the Ki as a dissociation constant, usually derived from enzyme kinetics or from competition with a known ligand. Turning to `Cc1ccnc(C(NC(=O)c2cc(Cn3ccn(C)c3=N)cc(-c3ncnc4c3CCCC4)c2)C2CC2)c1` (stereo not drawn) [Example 95, N-(Cyclopropyl(4-methylpyridin-2-yl)methyl)-3-((2-imino-3-methyl-2,3-dihydro-1H-imidazol-1-yl)methyl)-5-(5,6,7,8-tetrahydroquinazolin-4-yl)benzamide], the inhibition constant Ki is 20 nM.

Still in this assay, the particulars now being: read-out: Ki for Inhibition of WDR5 by TR-FRET assay; TR-FRET, 10mer-Thr-FAM probe, WDR5-His tag 2 nM, pH 7.0.
In the case of `COc1ncc(C)cc1-c1cc(Cn2ccn(C)c2=N)cc(C(=O)NC(c2cc(C)ccn2)C2CC2)c1` (stereo not drawn) [Example 2, N-(Cyclopropyl(4-methylpyridin-2-yl)methyl)-3-((2-imino-3-methyl-2,3-dihydro-1-imidazol-1-yl)methyl)-5-(2-methoxy-5-methylpyridin-3-yl)benzamide], the Ki was less than 0.1 nM.
On to `COc1ccnc(CNC(=O)c2cc(Cn3ccn(C)c3=N)cc(-c3cc(C)cnc3OC)c2)c1` [Example 4, 3-((2-imino-3-methyl-2,3-dihydro-1H-imidazol-1-yl)methyl)-5-(2-methoxy-5-methylpyridin-3-yl)-N-((4-methoxypyridin-2-yl)methyl)benzamide], for which the Ki was 0.34 nM.
On the same count and under the same terms, then `Cc1cc(F)ccc1-c1cc(Cn2cc[nH]c2=N)cc(C(=O)NCc2ccc(Cl)c(Cl)c2)n1` [Example 6, N-(3,4-Dichlorobenzyl)-6-(4-fluoro-2-methylphenyl)-4-((2-imino-2,3-dihydro-1H-imidazol-1-yl)methyl)picolinamide], with 24 nM; and `Cc1ccnc(C(NC(=O)c2cc(Cn3ccn(C)c3=N)cc(-c3ccnc(C)c3)c2)C2CC2)c1` (stereo not drawn) [Example 7], with 0.8 nM.
`Cc1ccnc(C(NC(=O)c2cc(Cn3ccn(C)c3=N)cc(-c3cccn3C)c2)C2CC2)c1` (stereo not drawn) [Example 11, N-(Cyclopropyl(4-methylpyridin-2-yl)methyl)-3-((2-imino-3-methyl-2,3-dihydro-1H-imidazol-1-yl)methyl)-5-(1-methyl-1H-pyrrol-2-yl)benzamide]: the Ki stood at 0.83 nM.
As to `Cc1ccnc(C(NC(=O)c2cc(Cn3ccn(C)c3=N)cc(-c3ccnn3C)c2)C2CC2)c1` (stereo not drawn) [Example 12, N-(Cyclopropyl(4-methylpyridin-2-yl)methyl)-3-((2-imino-3-methyl-2,3-dihydro-1H-imidazol-1-yl)methyl)-5-(1-methyl-1H-pyrazol-5-yl)benzamide], the Ki turned out to be 1.2 nM.
With `COc1cc(-c2cc(Cn3ccn(C)c3=N)cc(C(=O)NC(c3cc(C)ccn3)C3CC3)c2)ccn1` (stereo not drawn) [Example 14], the Ki came out at 6 nM.
On the same count and under the same terms, the value for `Cc1ccnc(C(NC(=O)c2cc(Cn3ccn(C)c3=N)cc(-c3cnccc3C)c2)C2CC2)c1` (stereo not drawn) [Example 15, N-(Cyclopropyl(4-methylpyridin-2-yl)methyl)-3-((2-imino-3-methyl-2,3-dihydro-1H-imidazol-1-yl)methyl)-5-(4-methylpyridin-3-yl)benzamide] was 2.7 nM.
On the same count and under the same terms, the value for `Cc1cc(CNC(=O)c2cc(Cn3ccn(C)c3=N)cc(-c3ccncc3C)c2)ccc1Cl` [Example 16, N-(4-Chloro-3-methylbenzyl)-3-((2-imino-3-methyl-2,3-dihydro-1H-imidazol-1-yl)methyl)-5-(3-methylpyridin-4-yl)benzamide] was 0.49 nM; that for `Cc1cc(CNC(=O)c2cc(Cn3ccn(C)c3=N)cc(-c3ccnn3C)c2)ccc1Cl` [Example 17, N-(4-Chloro-3-methylbenzyl)-3-((2-imino-3-methyl-2,3-dihydro 1H-imidazol-1-yl)methyl)-5-(1-methyl-1H-pyrazol-5-yl)benzamide] was 0.94 nM; that for `Cc1cc(-c2cc(Cn3ccn(C)c3=N)cc(C(=O)NCc3ccc(Cl)c(C)c3)c2)ccn1` [Example 18, N-(4-Chloro-3-methylbenzyl)-3-((2-imino-3-methyl-2,3-dihydro-1H-imidazol-1-yl)methyl)-5-(2-methylpyridin-4-yl)benzamide] was 3.5 nM.
The same measure, in the same setting: then `Cc1cc(CNC(=O)c2cc(Cn3cc[nH]c3=N)cc(-c3cccn3C)c2)ccc1Cl` [Example 19, N-(4-Chloro-3-methylbenzyl)-3-((2-imino-2,3-dihydro-1H-imidazol-1-yl)methyl)-5-(1-methyl-1H-pyrrol-2-yl)benzamide], with 0.35 nM; and `COc1cnccc1-c1cc(Cn2ccn(C)c2=N)cc(C(=O)NCc2ccc(Cl)c(C)c2)c1` [Example 20, N-(4-Chloro-3-methylbenzyl)-3-((2-imino-3-methyl-2,3-dihydro-1H-imidazol-1-yl)methyl)-5-(3-methoxypyridin-4-yl)benzamide], with 2.5 nM; and `COc1cc(-c2cc(Cn3ccn(C)c3=N)cc(C(=O)NCc3ccc(Cl)c(Cl)c3)c2)ccn1` [Example 24, N-(3,4-Dichlorobenzyl)-3-((2-imino-3-methyl-2,3-dihydro-1H-imidazol-1-yl)methyl)-5-(2-methoxypyridin-4-yl)benzamide], with 25 nM.
Regarding `Cc1ncccc1-c1cc(Cn2ccn(C)c2=N)cc(C(=O)NCc2cncnc2)c1` [Example 40, 3-((2-Imino-3-methyl-2,3-dihydro-1H-imidazol-1-yl)methyl)-5-(2-methylpyridin-3-yl)-N-(pyrimidin-5-ylmethyl)benzamide], the Ki stood at 133 nM.
Turning to `COc1cc(CNC(=O)c2cc(Cn3ccn(C)c3=N)cc(-c3cccnc3C)c2)ccn1` [Example 41, 3-((2-Imino-3-methyl-2,3-dihydro-1H-imidazol-1-yl)methyl)-N-((2-methoxypyridin-4-yl)methyl)-5-(2-methylpyridin-3-yl)benzamide], the Ki came out at 33 nM.
Consider `COc1ccnc(CNC(=O)c2cc(Cn3ccn(C)c3=N)cc(-c3cccnc3C)c2)c1` [Example 43, 3-((2-Imino-3-methyl-2,3-dihydro-1H-imidazol-1-yl)methyl)-N-((4-methoxypyridin-2-yl)methyl)-5-(2-methylpyridin-3-yl)benzamide], for which the Ki worked out at 8420 nM.
For the molecule `COc1cc(CN(C)C(=O)c2cc(Cn3ccn(C)c3=N)cc(-c3ccnc(C)c3)c2)cc(OC)c1` [Example 48, N-(3,5-dimethoxybenzyl)-3-((2-imino-3-methyl-2,3-dihydro-1H-imidazol-1-yl)methyl)-N-methyl-5-(2-methylpyridin-4-yl)benzamide], the Ki was 26 nM.
On the same count and under the same terms, then `Cc1cc(-c2cc(Cn3ccn(C)c3=N)cc(C(=O)NC(C3CC3)C3CC3)c2)ccn1` [Example 49, N-(Dicyclopropylmethyl)-3-((2-imino-3-methyl-2,3-dihydro-1H-imidazol-1-yl)methyl)-5-(2-methylpyridin-4-yl)benzamide], with 22 nM; and `Cc1cc(-c2cc(Cn3ccn(C)c3=N)cc(C(=O)NCc3ncc(Cl)cn3)c2)ccn1` [Example 51, N-((5-Chloropyrimidin-2-yl)methyl)-3-((2-imino-3-methyl-2,3-dihydro-1H-imidazol-1-yl)methyl)-5-(2-methylpyridin-4-yl)benzamide], with 17 nM.
On to `COc1cc(CNC(=O)c2cc(Cn3ccn(C)c3=N)cc(-c3cnc(F)cc3C)c2)cc(OC)c1` [Example 78, N-(3,5-Dimethoxybenzyl)-3-(6-fluoro-4-methylpyridin-3-yl)-5-((2-imino-3-methyl-2,3-dihydro-1H-imidazol-1-yl)methyl)benzamide], for which the Ki amounted to 5.9 nM.
In the case of `Cc1cc(CNC(=O)c2cc(Cn3ccn(C)c3=N)cc(-c3cnc(F)cc3C)c2)ccc1Cl` [Example 79, N-(4-Chloro-3-methylbenzyl)-3-(6-fluoro-4-methylpyridin-3-yl)-5-((2-imino-3-methyl-2,3-dihydro-1H-imidazol-1-yl)methyl)benzamide], the Ki came out at 4.3 nM.
For the molecule `Cc1cc(CNC(=O)c2cc(Cn3ccn(C)c3=N)cc(-c3ccc(=O)[nH]c3C)c2)ccc1Cl` [Example 80, N-(4-Chloro-3-methylbenzyl)-3-((2-imino-3-methyl-2,3-dihydro-1H-imidazol-1-yl)methyl)-5-(2-methyl-6-oxo-1,6-dihydropyridin-3-yl)benzamide], the Ki stood at 20 nM.
The same measure, in the same setting: then `COc1cc(CNC(=O)c2cc(Cn3ccn(C)c3=N)cc(-c3c[nH]c(=O)cc3C)c2)cc(OC)c1` [Example 81, N-(3,5-Dimethoxybenzyl)-3-((2-imino-3-methyl-2,3-dihydro-1H-imidazol-1-yl)methyl)-5-(4-methyl-6-oxo-1,6-dihydropyridin-3-yl)benzamide], with 13 nM; and `Cc1cc(=O)[nH]cc1-c1cc(Cn2ccn(C)c2=N)cc(C(=O)NCc2ccc(Cl)c(Cl)c2)c1` [Example 82, N-(3,4-dichlorobenzyl)-3-((2-imino-3-methyl-2,3-dihydro-1H-imidazol-1-yl)methyl)-5-(4-methyl-6-oxo-1,6-dihydropyridin-3-yl)benzamide], with 20 nM; and `Cc1cc(CNC(=O)c2cc(Cn3ccn(C)c3=N)cc(-c3c[nH]c(=O)cc3C)c2)ccc1Cl` [Example 83, N-(4-Chloro-3-methylbenzyl)-3-((2-imino-3-methyl-2,3-dihydro-1H-imidazol-1-yl)methyl)-5-(4-methyl-6-oxo-1,6-dihydropyridin-3-yl)benzamide], with 7.1 nM.
As for `Cc1ccccc1-c1cc(Cn2ccn(C)c2=N)cc(C(=O)NCc2ccc(Cl)c(Cl)c2)c1` [Example 92, N-(3,4-dichlorobenzyl)-5-((2-imino-3-methyl-2,3-dihydro-1H-imidazol-1-yl)methyl)-2′-methyl-[1,1′-biphenyl]-3-carboxamide], the Ki came out at 0.72 nM.
As for `COc1ccnc([C@H](NC(=O)c2cc(Cn3ccn(C)c3=N)cc(-c3ccc(F)cc3C)c2)C2CC2)c1` [Example 93, (R)—N-(Cyclopropyl(4-methoxypyridin-2-yl)methyl)-4′-fluoro-5-((2-imino-3-methyl-2,3-dihydro-1H-imidazol-1-yl)methyl)-2′-methyl-[1,1′-biphenyl]-3-carboxamide], the Ki turned out to be 1.9 nM.
Still for that read-out and setting: then `Cc1cc([C@@H](NC(=O)c2cc(Cn3ccn(C)c3=N)cc(-c3ncnc4c3CCCC4)c2)C2CC2)ccc1F` [Example 94, (S)—N-(Cyclopropyl(4-fluoro-3-methylphenyl)methyl)-3-((2-imino-3-methyl-2,3-dihydro-1H-imidazol-1-yl)methyl)-5-(5,6,7,8-tetrahydroquinazolin-4-yl)benzamide], with 36 nM.

The values above are taken from patent publication US10844044B2 (Vanderbilt University, priority 2018, dated 2020).
